{"source": "patent US20120220594A1", "about": "“METHODS FOR TREATING CANCER IN PATIENTS HAVING IGF-1R INHIBITOR RESISTANCE” (Bristol-Meyers Squibb Company, priority 2009, published 2012)", "key": {"Rh41-807R cells [1]": {"tested_on": "Rh41-807R cells", "settings": "1:1 ratio, Combination Index less than 1 indicates synergy", "description": "A dilution of ratios drug combination method was used in cellular proliferation assays to test the IC50 values of single agent (A or B) as well as in combination (a or b). […] Combination Index=(a/A+b/B)."}, "MCF-7-807R cells": {"tested_on": "MCF-7-807R cells", "experiment": "3H-thymidine incorporation cell proliferation assay in MCF-7-807R cells", "quoted_text": "(§3) Cells were plated at an optimized density in 96-well plates, incubated overnight at 37° C., and then exposed to a serial dilution of the drugs. After 72 hours incubation, cells were pulsed with 4 μCi/ml [^3H]-thymidine (Amersham Pharmacia Biotech, UK) for 3 hours, trypsinized, harvested onto […] ®-96 GF/B plates (PerkinElmer, Boston, Mass.); scintillation was measured on a TOPCOUNTO NXT (Packard, Conn.). […] The mean IC50 and standard deviation from multiple tests for each cell line were calculated."}, "PDGFRα RNA in Rh41 cells": {"tested_on": "PDGFRα RNA in Rh41 cells", "experiment": "Induction of PDGFRα expression in sensitive parental Rh41 cells (qRT-PCR)", "assay_type": "cell-based, human", "method": "FIGS. 3A-F show expression pattern comparisons of selected genes/proteins that uniquely changed expression only in 807R or in MAB391R. […] Insert: PDGFR-α protein expression pattern as detected by western blot. […] Cells starved for 24 hr, then stimulated with or without 50 ng/ml PDGF ligand fro 5 min. Cells were lyzed and 30 ug of total protein was used for western blot analyses. […] Insert: AXL protein expression as detected by western blot. […] Cells treated with 10 nM and 50 nM of BMS-754807 for 1, 2, 4, 8 and 24 hrs. PDGFRα RNA levels were measured by qRT-PCR and compared to the untreated time 0 control.\nComparing genes expression profiles, the inventors found there were some key signaling pathways that were differentially expressed in Rh41-807R and Rh41-MAB391R cells. An interesting example was PDGFR-α, which had >89 fold increase in RNA expression in Rh41-807R cells but not in Rh41-MAB391R compared to the parental; and the induction of PDGFR-α was persistent even in cells out of BMS-754807 selection for 3 months (FIG. 3A). The expression pattern was also confirmed at protein levels (FIG. 3A); PDGFR-α was also constitutively activated in Rh41-807R cells (FIG. 3B). […] Other genes such as c-KIT, FGFR2 and EPHA3 had similar expression pattern as PDGFR-α (FIG. 3C). Several Eph receptor family members such as EPHA3, EPHA4 and EPHB2 as well as ligand EFNA3 were overexpressed in 807R."}, "Geo cells": {"tested_on": "Geo cells", "experiment": "3H-thymidine incorporation cell proliferation assay in Geo cells", "assay_type": "cell-based", "quoted_text": "as §3"}, "Rh41 cells": {"tested_on": "Rh41 cells", "experiment": "3H-thymidine incorporation cell proliferation assay in parental Rh41 cells", "assay_type": "cell-based, human", "settings": "Homo sapiens", "description": "(§1) Human rhabdomyosarcoma cell line Rh41 was provided by Dr. Lee Helman and grown in RPMI medium plus GLUTAMAX® supplemented with 10% fetal bovine serum (FBS), 10 mmol/L HEPES, penicillin, and streptomycin."}, "Rh41 xenograft tumors": {"tested_on": "Rh41 xenograft tumors", "experiment": "In vivo xenograft tumor growth inhibition, Rh41", "settings": "Rh41 xenograft tumors in nude mice", "quoted_text": "(§4) Tumor volume was measured to assess tumor growth inhibition."}, "SW403-807R cells": {"tested_on": "SW403-807R cells", "experiment": "3H-thymidine incorporation cell proliferation assay in SW403-807R cells", "assay_type": "cell-based", "quoted_text": "as §3"}, "Rh1 cells": {"tested_on": "Rh1 cells", "experiment": "3H-thymidine incorporation cell proliferation assay in Rh1 cells", "assay_type": "cell-based", "settings": "Homo sapiens, RH-1", "quoted_text": "as §3"}, "[2]": {"tested_on": "Rh41-807R xenograft tumors", "experiment": "In vivo xenograft tumor growth inhibition, Rh41-807R", "settings": "Rh41-807R xenograft tumors in nude mice", "quoted_text": "as §4"}, "SW403 cells": {"tested_on": "SW403 cells", "experiment": "3H-thymidine incorporation cell proliferation assay in SW403 cells", "assay_type": "cell-based", "settings": "Homo sapiens, SW-403", "quoted_text": "as §3"}, "Rh41-807Rout cells": {"tested_on": "Rh41-807Rout cells", "experiment": "Cell proliferation assay in Rh41-807Rout cells (out of drug selection for 3 months)", "assay_type": "cell-based, human", "settings": "out of drug selection for 3 months of passages", "description": "(§2) Human rhabdomyosarcoma cell line Rh41 was chosen in this study to develop acquired resistance because it expresses IGF-1R (Huang et al., Cancer Res., 69(1):161-170 (Jan. 1, 2009)), the target of BMS-754807 and MAB391; and is sensitive to both drugs (Carboni et al., Proceedings of the 100th Annual Meeting of the American Association for Cancer Research, 2009 Apr. 18-22; Denver, Colo., Abstract No. 1742). The acquired-resistant Rh41-807R and Rh41-MAB391R cell lines were developed using a stepwise exposure to increasing concentrations of either IGF-1R/IR inhibitor BMS-754807 or IGF-1R antibody MAB391 for extended periods of time until a resistance plateau was reach. […];"}, "[3]": {"tested_on": "Rh41-807R cells with PDGFR-α knockdown", "experiment": "Proliferation assay in Rh41-807R cells transfected with PDGFR-α specific siRNA", "settings": "Rh41-807R cells treated with PDGFR-α siRNA", "quoted_text": "(§5) RISC-free siRNA was transfected as the negative control (Dharmacon). Following the addition of the drugs, cells were incubated at 37° C. for 72 hours before cell growth was measured by incorporation of ^3H-thymidine as described for in vitro cellular proliferation assays."}, "[4]": {"tested_on": "Rh41 cells with PDGFR-α knockdown", "experiment": "Proliferation assay in Rh41 cells transfected with PDGFR-α specific siRNA", "settings": "Rh41 sensitive parental cells", "quoted_text": "as §5"}, "Rh41-807R cells [5]": {"tested_on": "Rh41-807R cells", "experiment": "3H-thymidine incorporation cell proliferation assay in BMS-754807-resistant Rh41-807R cells", "assay_type": "cell-based, human", "settings": "for IC50: Homo sapiens", "description": "as §1"}, "Rh1-807R cells": {"tested_on": "Rh1-807R cells", "experiment": "3H-thymidine incorporation cell proliferation assay in Rh1-807R cells", "assay_type": "cell-based", "quoted_text": "as §3"}, "GEO-807R cells": {"tested_on": "GEO-807R cells", "experiment": "3H-thymidine incorporation cell proliferation assay in GEO-807R cells", "assay_type": "cell-based", "quoted_text": "as §3"}, "Rh41-MAB391R cells": {"tested_on": "Rh41-MAB391R cells", "experiment": "3H-thymidine incorporation cell proliferation assay in MAB391-resistant Rh41-MAB391R cells", "assay_type": "cell-based, human", "description": "Human rhabdomyosarcoma cell line Rh41 was provided by Dr. Lee Helman and grown in RPMI medium plus GLUTAMAX® supplemented with 10% fetal bovine serum (FBS), 10 mmol/L HEPES, penicillin, and streptomycin. To develop acquired resistant cells to either BMS-754807, or mAB391 (R&D Systems, Inc., Minneapolis, Minn.), the sensitive Rh41 cells were exposed to the corresponding drug at the IC50 concentration and then at gradually increasing concentrations every other culture passage. The IC50 value to the compound was measured periodically during this treatment time until the resistance level reached a plateau.\nas §2"}, "[6]": {"settings": "read-out: IGF-1R inhibitor Compound (IC50)"}}, "note": "Read-outs that look alike come from different tables or passages of the source.", "data": [{"molecule": "Cc1ccc(NC(=O)c2ccc(CN3CCN(C)CC3)cc2)cc1Nc1nccc(-c2cccnc2)n1", "note": "[imatinib]", "values": [{"measurement": "activity in growth inhibition in combination with BMS-754807", "setting": "Rh41-807R cells [1]", "value": "synergistic activity"}]}, {"molecule": "C[C@@]1(C(=O)Nc2ccc(F)nc2)CCCN1c1nc(Nc2cc(C3CC3)[nH]n2)c2cccn2n1", "note": "[BMS-754807, (2S)-1-(4-((5-cyclopropyl-1H-pyrazol-3-yl)amino)pyrrolo[2,1-f][1,2,4]triazin-2-yl)-N-(6-fluoro-3-pyridinyl)-2-methyl-2-pyrrolidinecarboxamide]", "values": [{"measurement": "IC50", "setting": "MCF-7-807R cells; Homo sapiens, MCF7", "value": 735, "unit": "nM"}, {"measurement": "Relative resistance", "setting": "MCF-7-807R cells; fold change in IC50, resistant vs parental MCF-7 cells", "value": 46, "unit": "X"}, {"measurement": "IC50", "setting": "MCF-7-807R cells; [6]", "value": "972 ± 400", "unit": "nM"}, {"measurement": "time at which induction of PDGFRα RNA was seen after treatment", "setting": "PDGFRα RNA in Rh41 cells; Rh41 cells", "value": 4, "unit": "h"}, {"measurement": "induction of PDGFR-α expression", "setting": "PDGFRα RNA in Rh41 cells; Rh41 sensitive parental cells, 10 nM and 50 nM", "value": "dose-dependent"}, {"measurement": "IC50", "setting": "Geo cells; Geo cells, Table 9, read-out: IGF-1R inhibitor Compound (IC50)", "value": 350, "unit": "nM"}, {"measurement": "IC50", "setting": "Geo cells; Geo parental cells, Table 8, read-out: Parental IC50", "value": 350, "unit": "nM"}, {"measurement": "IC50", "setting": "Rh41 cells; Rh41, read-out: IC50 (nM) Rh41", "value": 5, "unit": "nM"}, {"measurement": "IC50", "setting": "Rh41 cells; Rh41, read-out: IGF-1R inhibitor Compound (IC50)", "value": 5, "unit": "nM"}, {"measurement": "IC50", "setting": "Rh41 cells; Rh41, read-out: Parental IC50 (nM)", "value": 5, "unit": "nM"}, {"measurement": "tumor growth inhibition (TGI)", "setting": "Rh41 xenograft tumors", "value": 73, "unit": "%"}, {"measurement": "IC50", "setting": "SW403-807R cells; Homo sapiens, SW-403, BMS-754807-resistant SW403 cells, maintenance conc. 500, Table 8, read-out: IC50", "value": 979, "unit": "nM"}, {"measurement": "IC50", "setting": "SW403-807R cells; SW403-807R cells, Table 9, read-out: IGF-1R inhibitor Compound (IC50)", "value": "979 ± 528", "unit": "nM"}, {"measurement": "Relative resistance", "setting": "SW403-807R cells; fold change in IC50, resistant vs parental SW403 cells", "value": 4.5, "unit": "X"}, {"measurement": "IC50", "setting": "Rh1 cells; Rh1 cells, Table 9, read-out: IGF-1R inhibitor Compound (IC50)", "value": 27, "unit": "nM"}, {"measurement": "IC50", "setting": "Rh1 cells; Rh1 parental cells, Table 8, read-out: Parental IC50", "value": 27, "unit": "nM"}, {"measurement": "tumor growth inhibition (TGI)", "setting": "[2]", "value": 35, "unit": "%"}, {"measurement": "IC50", "setting": "SW403 cells; SW403 cells, Table 9, read-out: IGF-1R inhibitor Compound (IC50)", "value": 220, "unit": "nM"}, {"measurement": "IC50", "setting": "SW403 cells; SW403 parental cells, Table 8, read-out: Parental IC50", "value": 220, "unit": "nM"}, {"measurement": "resistance of Rh41-807Rout", "setting": "Rh41-807Rout cells", "value": "significant level of resistance"}, {"measurement": "response to growth inhibition after PDGFR-α siRNA", "setting": "[3]", "value": "sensitive to growth inhibition"}, {"measurement": "sensitivity between untransfected, control siRNA and PDGFR-α-specific siRNA transfected cells", "setting": "[4]", "value": "no significant differences in the sensitivity"}, {"measurement": "IC50", "setting": "Rh41-807R cells [5]; Rh41", "value": 811, "unit": "nM"}, {"measurement": "IC50", "setting": "Rh41-807R cells [5]; read-out: IC50 (nM) Rh41-807R", "value": 811, "unit": "nM"}, {"measurement": "IC50", "setting": "Rh41-807R cells [5]; [6]", "value": 811, "unit": "nM"}, {"measurement": "Relative resistance", "setting": "Rh41-807R cells [5]; fold change in IC50, resistant vs parental Rh41 cells", "value": 162, "unit": "X"}, {"measurement": "IC50", "setting": "Rh1-807R cells; Homo sapiens, RH-1, BMS-754807-resistant Rh1 cells, maintenance conc. 120, Table 8, read-out: IC50", "value": 1800, "unit": "nM"}, {"measurement": "IC50", "setting": "Rh1-807R cells; Rh1-807R cells, Table 9, read-out: IGF-1R inhibitor Compound (IC50)", "value": "1800 ± 1390", "unit": "nM"}, {"measurement": "Relative resistance", "setting": "Rh1-807R cells; fold change in IC50, resistant vs parental Rh1 cells", "value": 66.5, "unit": "X"}, {"measurement": "IC50", "setting": "GEO-807R cells; BMS-754807-resistant Geo cells, maintenance conc. 2000, Table 8, read-out: IC50", "value": 1230, "unit": "nM"}, {"measurement": "IC50", "setting": "GEO-807R cells; GEO-807R cells, Table 9, read-out: IGF-1R inhibitor Compound (IC50)", "value": "1230 ± 251", "unit": "nM"}, {"measurement": "Relative resistance", "setting": "GEO-807R cells; fold change in IC50, resistant vs parental Geo cells", "value": 3.5, "unit": "X"}, {"measurement": "IC50", "setting": "Rh41-MAB391R cells; Homo sapiens, read-out: IC50 (nM) Rh41-MAB391R", "value": 27, "unit": "nM"}, {"measurement": "activity in the Rh41-MAB391R model", "setting": "Rh41-MAB391R cells; growth inhibited to a comparable level as the parental cells", "value": "relatively active"}]}]}
